#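 In this assay, cells in 96-well plates receive the compound at five concentrations for 48 hours. Endpoints are linearly interpolated between the surrounding concentrations. The concentration for 50% growth inhibition is given as GI50. TGI marks complete inhibition of growth.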
# How the values were obtained:
# Test in all cases: NCI-60 cell line screen, 48 h
# M14 melanoma = test system: M14 melanoma
# LOX IMVI melanoma = test system: LOX IMVI melanoma
# U251 CNS = test system: U251 CNS
# CCRF-CEM leukemia = test system: CCRF-CEM leukemia
# UACC-62 melanoma = test system: UACC-62 melanoma
# BT-549 breast = test system: BT-549 breast
# SR leukemia = test system: SR leukemia
# TK-10 renal = test system: TK-10 renal
# MOLT-4 leukemia = test system: MOLT-4 leukemia
# OVCAR-3 ovarian = test system: OVCAR-3 ovarian
# OVCAR-4 ovarian = test system: OVCAR-4 ovarian
# SK-MEL-5 melanoma = test system: SK-MEL-5 melanoma
# SNB-75 CNS = test system: SNB-75 CNS
# SK-MEL-28 melanoma = test system: SK-MEL-28 melanoma
# SK-MEL-2 melanoma = test system: SK-MEL-2 melanoma
# RXF 393 renal = test system: RXF 393 renal
# HCT-15 colon = test system: HCT-15 colon
# MDA-MB-231 breast = test system: MDA-MB-231 breast
# MALME-3M melanoma = test system: MALME-3M melanoma
# SK-OV-3 ovarian = test system: SK-OV-3 ovarian
# SW-620 colon = test system: SW-620 colon
# EKVX NSCLC = test system: EKVX NSCLC
# HL-60(TB) leukemia = test system: HL-60(TB) leukemia
# UO-31 renal = test system: UO-31 renal
# MDA-MB-435 = test system: MDA-MB-435
# SNB-19 CNS = test system: SNB-19 CNS
# HOP-62 NSCLC = test system: HOP-62 NSCLC
# HOP-92 NSCLC = test system: HOP-92 NSCLC
# MCF7 breast = test system: MCF7 breast
# HS 578T breast = test system: HS 578T breast
# NCI/ADR-RES ovarian = test system: NCI/ADR-RES ovarian
# OVCAR-5 ovarian = test system: OVCAR-5 ovarian
# HCC-2998 colon = test system: HCC-2998 colon
# A498 renal = test system: A498 renal
# SF-539 CNS = test system: SF-539 CNS
# NCI-H23 lung = test system: NCI-H23 lung
# SF-295 CNS = test system: SF-295 CNS
# IGROV1 ovarian = test system: IGROV1 ovarian
# A549 NSCLC = test system: A549 NSCLC
# RPMI-8226 leukemia = test system: RPMI-8226 leukemia
# CAKI-1 renal = test system: CAKI-1 renal
# ACHN renal = test system: ACHN renal
# PC-3 prostate = test system: PC-3 prostate
# K-562 leukemia = test system: K-562 leukemia
# NCI-H522 lung = test system: NCI-H522 lung
# UACC-257 melanoma = test system: UACC-257 melanoma
# HCT-116 colon = test system: HCT-116 colon
# KM12 colon = test system: KM12 colon
# SF-268 CNS = test system: SF-268 CNS
# NCI-H460 lung = test system: NCI-H460 lung
# DU-145 prostate = test system: DU-145 prostate
# OVCAR-8 ovarian = test system: OVCAR-8 ovarian
# SN12C renal = test system: SN12C renal
# T-47D breast = test system: T-47D breast
# NCI-H226 lung = test system: NCI-H226 lung
# COLO 205 colon = test system: COLO 205 colon
# 786-0 renal = test system: 786-0 renal
# HT29 colon = test system: HT29 colon
compound,measurement,setting,value
NC1=C(Cl)C(=O)c2ccc(S(N)(=O)=O)cc2C1=O,GI50,M14 melanoma,134 nM
same,TGI,M14 melanoma,278 nM
same,GI50,LOX IMVI melanoma,36.7 nM
same,TGI,LOX IMVI melanoma,182 nM
same,GI50,U251 CNS,184 nM
same,TGI,U251 CNS,871 nM
same,GI50,CCRF-CEM leukemia,374 nM
same,TGI,CCRF-CEM leukemia,2770 nM
same,GI50,UACC-62 melanoma,135 nM
same,TGI,UACC-62 melanoma,273 nM
same,GI50,BT-549 breast,171 nM
same,TGI,BT-549 breast,314 nM
same,GI50,SR leukemia,262 nM
same,TGI,SR leukemia,606 nM
same,GI50,TK-10 renal,1560 nM
same,TGI,TK-10 renal,2950 nM
same,GI50,MOLT-4 leukemia,515 nM
same,TGI,MOLT-4 leukemia,3220 nM
same,GI50,OVCAR-3 ovarian,198 nM
same,TGI,OVCAR-3 ovarian,454 nM
same,GI50,OVCAR-4 ovarian,324 nM
same,TGI,OVCAR-4 ovarian,1010 nM
same,GI50,SK-MEL-5 melanoma,30.4 nM
same,TGI,SK-MEL-5 melanoma,96.3 nM
same,GI50,SNB-75 CNS,144 nM
same,TGI,SNB-75 CNS,293 nM
same,GI50,SK-MEL-28 melanoma,247 nM
same,TGI,SK-MEL-28 melanoma,565 nM
same,GI50,SK-MEL-2 melanoma,192 nM
same,TGI,SK-MEL-2 melanoma,487 nM
same,GI50,RXF 393 renal,286 nM
same,TGI,RXF 393 renal,903 nM
same,GI50,HCT-15 colon,164 nM
same,TGI,HCT-15 colon,339 nM
same,GI50,MDA-MB-231 breast,332 nM
same,TGI,MDA-MB-231 breast,2700 nM
same,GI50,MALME-3M melanoma,42.6 nM
same,TGI,MALME-3M melanoma,137 nM
same,GI50,SK-OV-3 ovarian,1670 nM
same,TGI,SK-OV-3 ovarian,3110 nM
same,GI50,SW-620 colon,293 nM
same,TGI,SW-620 colon,890 nM
same,GI50,EKVX NSCLC,1530 nM
same,TGI,EKVX NSCLC,2910 nM
same,GI50,HL-60(TB) leukemia,366 nM
same,TGI,HL-60(TB) leukemia,1180 nM
same,GI50,UO-31 renal,211 nM
same,TGI,UO-31 renal,564 nM
same,GI50,MDA-MB-435,28.8 nM
same,TGI,MDA-MB-435,74.3 nM
same,GI50,SNB-19 CNS,305 nM
same,TGI,SNB-19 CNS,1050 nM
same,GI50,HOP-62 NSCLC,251 nM
same,TGI,HOP-62 NSCLC,596 nM
same,GI50,HOP-92 NSCLC,2040 nM
same,TGI,HOP-92 NSCLC,3730 nM
same,GI50,MCF7 breast,150 nM
same,TGI,MCF7 breast,346 nM
same,GI50,HS 578T breast,126 nM
same,GI50,NCI/ADR-RES ovarian,285 nM
same,TGI,NCI/ADR-RES ovarian,4680 nM
same,GI50,OVCAR-5 ovarian,251 nM
same,TGI,OVCAR-5 ovarian,658 nM
same,GI50,HCC-2998 colon,775 nM
same,TGI,HCC-2998 colon,2060 nM
same,GI50,A498 renal,507 nM
same,TGI,A498 renal,1300 nM
same,GI50,SF-539 CNS,200 nM
same,TGI,SF-539 CNS,379 nM
same,GI50,NCI-H23 lung,176 nM
same,TGI,NCI-H23 lung,517 nM
same,GI50,SF-295 CNS,143 nM
same,TGI,SF-295 CNS,289 nM
same,GI50,IGROV1 ovarian,681 nM
same,TGI,IGROV1 ovarian,1570 nM
same,GI50,A549 NSCLC,160 nM
same,TGI,A549 NSCLC,358 nM
same,GI50,RPMI-8226 leukemia,354 nM
same,TGI,RPMI-8226 leukemia,2040 nM
same,GI50,CAKI-1 renal,820 nM
same,TGI,CAKI-1 renal,2280 nM
same,GI50,ACHN renal,263 nM
same,TGI,ACHN renal,895 nM
same,GI50,PC-3 prostate,314 nM
same,TGI,PC-3 prostate,1500 nM
same,GI50,K-562 leukemia,313 nM
same,TGI,K-562 leukemia,1210 nM
same,GI50,NCI-H522 lung,189 nM
same,TGI,NCI-H522 lung,403 nM
same,GI50,UACC-257 melanoma,128 nM
same,TGI,UACC-257 melanoma,267 nM
same,GI50,HCT-116 colon,224 nM
same,TGI,HCT-116 colon,602 nM
same,GI50,KM12 colon,332 nM
same,TGI,KM12 colon,1060 nM
same,GI50,SF-268 CNS,372 nM
same,TGI,SF-268 CNS,1220 nM
same,GI50,NCI-H460 lung,210 nM
same,TGI,NCI-H460 lung,487 nM
same,GI50,DU-145 prostate,132 nM
same,TGI,DU-145 prostate,273 nM
same,GI50,OVCAR-8 ovarian,273 nM
same,TGI,OVCAR-8 ovarian,977 nM
same,GI50,SN12C renal,172 nM
same,TGI,SN12C renal,340 nM
same,GI50,T-47D breast,318 nM
same,TGI,T-47D breast,1200 nM
same,GI50,NCI-H226 lung,231 nM
same,TGI,NCI-H226 lung,595 nM
same,GI50,COLO 205 colon,1570 nM
same,TGI,COLO 205 colon,2980 nM
same,GI50,786-0 renal,1820 nM
same,TGI,786-0 renal,3240 nM
same,GI50,HT29 colon,715 nM
same,TGI,HT29 colon,2910 nM
